According to ChEMBL document CHEMBL1134224, “Synthetic analogues of SB-219383. Novel C-glycosyl peptides as inhibitors of tyrosyl tRNA synthetase” (Bioorg Med Chem Lett, 2001):

What was measured:
[1] = biological target: Tyrosine--tRNA ligase (Staphylococcus aureus); assay: Inhibitory activity against Staphylococcus aureus tyrosyl tRNA synthetase (YRS) using aminoacylation assay
[2] = test system: Tyrosine--tRNA ligase (Staphylococcus aureus); assay: Inhibitory activity (3 uM) against Staphylococcus aureus tyrosyl tRNA synthetase (YRS) using aminoacylation assay; No inhibition

How did the IC50 [1] turn out when `N[C@@H](Cc1ccc(O)cc1)C(=O)N[C@H](C(=O)O)[C@H]1[C@H](O)[C@@H](O)[C@@H](O)CN1O` was run?
The IC50 was 1.2 nM.

For `N[C@@H](Cc1ccc(O)cc1)C(=O)N[C@@H](C(=O)O)[C@H]1OC[C@@H](O)[C@@H](O)[C@@H]1O`, which IC50 [2] is on record?
Its IC50 is “Not Active”.

For `N[C@@H](Cc1ccc(O)cc1)C(=O)N[C@H](C(=O)O)[C@H]1OC[C@@H](O)[C@@H](O)[C@@H]1O`, which IC50 [2] is on record?
Its IC50 is “Not Active”.
